ChEMBL document CHEMBL1201862, “PubChem BioAssay data set” (2004)
Calls of active or inactive are those of the source.

Key:
[1] = molecular target: T1, Heat shock factor protein 1 (Mus musculus, UniProt P38532); test: inhibition of MG132-induced HSE-luciferase signal, confirmation, cell-based, NIH3T3, luminescence, dose retest (AID 2382); format: functional;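 note: NIH3T3 fibroblasts with HSF1-driven luciferase reporter stressed by proteasome inhibitor MG132; luminescence from HSF1-driven luciferase expression after 8 hours of MG132 stress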
T1 sequence (P38532 whole entry): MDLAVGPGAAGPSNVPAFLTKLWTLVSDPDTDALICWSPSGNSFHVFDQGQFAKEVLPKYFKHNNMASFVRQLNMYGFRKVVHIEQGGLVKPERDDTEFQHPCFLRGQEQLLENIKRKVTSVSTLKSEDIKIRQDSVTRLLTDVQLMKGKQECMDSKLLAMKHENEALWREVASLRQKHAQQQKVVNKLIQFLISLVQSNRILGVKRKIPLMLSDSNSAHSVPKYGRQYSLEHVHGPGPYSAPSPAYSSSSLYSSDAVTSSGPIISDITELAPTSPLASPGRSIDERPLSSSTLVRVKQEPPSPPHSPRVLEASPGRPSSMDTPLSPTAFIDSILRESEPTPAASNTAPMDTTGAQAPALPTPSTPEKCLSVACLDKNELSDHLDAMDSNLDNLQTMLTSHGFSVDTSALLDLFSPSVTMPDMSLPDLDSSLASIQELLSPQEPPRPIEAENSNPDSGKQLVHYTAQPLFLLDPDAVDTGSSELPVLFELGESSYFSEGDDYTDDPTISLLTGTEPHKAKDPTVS

[2] = molecular target: T2, Corticotropin-releasing factor receptor 2/Corticotropin-releasing factor-binding protein (Homo sapiens, UniProt P24387+Q13324); test: activators of CRF receptor 2 with binding protein – uHTS hits, confirmation (AID 602473); format: functional; conditions: read-out: EC50_Mean
T2 sequence (Q13324 whole entry): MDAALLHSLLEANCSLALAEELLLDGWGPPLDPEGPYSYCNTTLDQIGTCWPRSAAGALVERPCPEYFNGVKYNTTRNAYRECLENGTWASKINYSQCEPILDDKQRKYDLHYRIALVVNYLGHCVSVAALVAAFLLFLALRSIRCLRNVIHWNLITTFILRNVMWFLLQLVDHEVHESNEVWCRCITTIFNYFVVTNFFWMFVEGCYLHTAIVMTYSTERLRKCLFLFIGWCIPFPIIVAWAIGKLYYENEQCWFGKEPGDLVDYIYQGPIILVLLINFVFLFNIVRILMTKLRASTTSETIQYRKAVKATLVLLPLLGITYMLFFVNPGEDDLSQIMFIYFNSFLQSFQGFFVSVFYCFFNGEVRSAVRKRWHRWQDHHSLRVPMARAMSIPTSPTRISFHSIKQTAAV
T2 sequence (P24387 whole entry): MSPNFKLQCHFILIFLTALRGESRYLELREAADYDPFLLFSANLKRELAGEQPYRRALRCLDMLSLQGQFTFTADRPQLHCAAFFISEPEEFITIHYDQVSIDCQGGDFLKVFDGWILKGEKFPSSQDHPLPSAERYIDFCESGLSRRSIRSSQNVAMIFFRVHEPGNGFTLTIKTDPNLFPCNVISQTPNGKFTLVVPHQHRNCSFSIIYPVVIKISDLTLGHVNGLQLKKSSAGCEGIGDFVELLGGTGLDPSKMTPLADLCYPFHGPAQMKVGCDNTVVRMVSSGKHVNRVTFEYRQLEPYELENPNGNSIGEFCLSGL

HEK293 = test: inhibitors of LMP1-driven NF-kB reporter, dose response, cell-based, HEK293, luciferase, cherry-pick (AID 588343); format: functional; conditions: Homo sapiens
[3] = AlphaScreen signal interference compounds, dose response, artefact control for ARNT-TACC3 interaction inhibitor project, biochemical, luminescence, cherry-pick (AID 651705); format: functional;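 note: AlphaScreen bead proximity signal that flags compounds interfering with the detection technology; potency reflects signal decrease which marks the compound as an assay artifact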
Protein RecA = molecular target: T3, Protein RecA (Mycobacterium tuberculosis, UniProt P9WHJ3); test: Fluorescence Cell-Free Homogeneous Dose Retest to Identify Inhibitors of RecA-Intein Splicing Activity. [Related pubchem assays (depositor defined):AID2097, AID2223, AID489010, AID492950]; format: functional
T3 sequence (P9WHJ3 whole entry): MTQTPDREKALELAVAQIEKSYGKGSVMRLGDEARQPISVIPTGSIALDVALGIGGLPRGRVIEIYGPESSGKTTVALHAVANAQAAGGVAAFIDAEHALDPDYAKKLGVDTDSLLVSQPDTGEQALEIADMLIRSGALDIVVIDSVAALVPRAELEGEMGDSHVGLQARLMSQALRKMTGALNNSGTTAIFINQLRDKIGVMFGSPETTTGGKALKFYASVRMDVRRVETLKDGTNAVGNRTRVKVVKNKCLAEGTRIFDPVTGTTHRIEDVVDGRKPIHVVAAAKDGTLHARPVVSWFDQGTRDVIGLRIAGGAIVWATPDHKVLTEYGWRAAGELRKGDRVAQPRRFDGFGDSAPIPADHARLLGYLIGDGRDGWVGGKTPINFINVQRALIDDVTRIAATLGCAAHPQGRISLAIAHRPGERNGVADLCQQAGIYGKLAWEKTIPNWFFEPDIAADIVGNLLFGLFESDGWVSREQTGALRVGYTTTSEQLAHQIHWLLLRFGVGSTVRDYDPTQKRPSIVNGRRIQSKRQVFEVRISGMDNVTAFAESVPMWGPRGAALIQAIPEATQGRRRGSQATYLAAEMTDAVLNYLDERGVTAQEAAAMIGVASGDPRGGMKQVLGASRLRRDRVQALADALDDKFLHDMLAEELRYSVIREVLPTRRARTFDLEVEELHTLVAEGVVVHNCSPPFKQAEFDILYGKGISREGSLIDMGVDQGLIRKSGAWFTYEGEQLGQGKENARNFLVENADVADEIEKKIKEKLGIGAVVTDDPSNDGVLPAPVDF

[4] = molecular target: T4, Eukaryotic translation initiation factor 2-alpha kinase 3 (Homo sapiens, UniProt Q9NZJ5); test: Dose response cell-based high-throughput screening assay to measure PERK inhibition. [Related pubchem assays: 1416 ]; format: functional
T4 sequence (Q9NZJ5 whole entry): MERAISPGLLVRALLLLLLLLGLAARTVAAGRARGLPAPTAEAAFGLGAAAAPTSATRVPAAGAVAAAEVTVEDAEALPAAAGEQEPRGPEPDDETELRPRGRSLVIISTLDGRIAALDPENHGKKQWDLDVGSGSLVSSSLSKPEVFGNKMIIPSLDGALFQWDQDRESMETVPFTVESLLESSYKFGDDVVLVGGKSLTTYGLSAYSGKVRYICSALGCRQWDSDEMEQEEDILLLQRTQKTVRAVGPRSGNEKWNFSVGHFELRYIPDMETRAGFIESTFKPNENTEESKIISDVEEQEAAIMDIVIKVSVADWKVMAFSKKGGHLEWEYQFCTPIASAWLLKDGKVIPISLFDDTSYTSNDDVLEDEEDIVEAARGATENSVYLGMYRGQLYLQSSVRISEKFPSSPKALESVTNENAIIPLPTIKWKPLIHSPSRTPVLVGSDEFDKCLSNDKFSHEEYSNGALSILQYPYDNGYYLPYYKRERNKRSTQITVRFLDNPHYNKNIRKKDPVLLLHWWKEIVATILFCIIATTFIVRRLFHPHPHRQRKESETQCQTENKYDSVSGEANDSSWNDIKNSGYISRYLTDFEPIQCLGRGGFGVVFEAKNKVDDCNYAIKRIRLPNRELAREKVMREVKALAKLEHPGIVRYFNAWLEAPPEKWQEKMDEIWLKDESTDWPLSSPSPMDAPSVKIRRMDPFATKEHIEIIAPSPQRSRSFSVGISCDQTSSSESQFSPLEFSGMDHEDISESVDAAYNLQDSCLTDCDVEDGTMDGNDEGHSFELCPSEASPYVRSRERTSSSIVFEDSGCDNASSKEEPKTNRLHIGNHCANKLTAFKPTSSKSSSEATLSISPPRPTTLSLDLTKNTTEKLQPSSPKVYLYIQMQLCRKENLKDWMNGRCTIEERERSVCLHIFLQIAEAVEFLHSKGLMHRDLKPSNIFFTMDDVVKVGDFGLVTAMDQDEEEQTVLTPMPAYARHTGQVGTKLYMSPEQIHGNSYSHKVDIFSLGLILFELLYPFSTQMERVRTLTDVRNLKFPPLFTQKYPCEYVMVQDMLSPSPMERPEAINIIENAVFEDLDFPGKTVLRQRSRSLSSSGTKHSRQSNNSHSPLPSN

[5] = molecular target: T5, Replicative DNA helicase DnaB (Mycobacterium tuberculosis, UniProt P9WMR3); test: DnaB intein splicing inhibitors, dose response, biochemical, cell-free fluorescence (AID 449749); format: functional
T5 sequence (P9WMR3 whole entry): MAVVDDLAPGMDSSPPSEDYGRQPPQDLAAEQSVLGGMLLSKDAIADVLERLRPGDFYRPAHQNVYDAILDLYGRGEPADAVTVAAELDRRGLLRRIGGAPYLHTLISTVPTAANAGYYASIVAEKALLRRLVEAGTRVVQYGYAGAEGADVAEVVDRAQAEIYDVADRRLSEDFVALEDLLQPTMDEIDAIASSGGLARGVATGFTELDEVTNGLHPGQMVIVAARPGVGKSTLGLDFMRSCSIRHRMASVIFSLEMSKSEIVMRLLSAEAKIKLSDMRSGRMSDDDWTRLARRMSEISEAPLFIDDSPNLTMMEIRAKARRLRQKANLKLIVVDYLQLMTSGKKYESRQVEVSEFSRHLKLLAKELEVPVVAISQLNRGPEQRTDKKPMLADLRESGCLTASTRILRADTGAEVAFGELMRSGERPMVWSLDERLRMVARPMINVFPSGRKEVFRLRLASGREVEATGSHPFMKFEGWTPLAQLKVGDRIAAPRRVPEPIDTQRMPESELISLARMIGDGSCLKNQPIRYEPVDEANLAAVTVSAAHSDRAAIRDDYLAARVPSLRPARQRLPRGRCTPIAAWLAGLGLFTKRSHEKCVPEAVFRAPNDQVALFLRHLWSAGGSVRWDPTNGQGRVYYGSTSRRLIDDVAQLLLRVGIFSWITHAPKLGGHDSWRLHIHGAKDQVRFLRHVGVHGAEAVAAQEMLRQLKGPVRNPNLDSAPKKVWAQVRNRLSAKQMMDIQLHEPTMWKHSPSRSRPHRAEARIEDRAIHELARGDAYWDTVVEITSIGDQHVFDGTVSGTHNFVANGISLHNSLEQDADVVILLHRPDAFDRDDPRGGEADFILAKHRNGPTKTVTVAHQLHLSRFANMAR

[6] = molecular target: T4, Eukaryotic translation initiation factor 2-alpha kinase 3; test: Counterscreen assay for PERK inhibitors: Dose response cell-based high throughput screening assay to measure inhibition of PERK at 6 hours. [Related pubchem assays: 1522, 1416 ]; format: functional
Nonstructural protein 1 = Nonstructural protein 1 (Influenza A virus, UniProt Q194T2); format: functional, Influenza A virus (A/California/07/2009(H1N1))
Nonstructural protein 1, sequence (Q194T2 whole entry): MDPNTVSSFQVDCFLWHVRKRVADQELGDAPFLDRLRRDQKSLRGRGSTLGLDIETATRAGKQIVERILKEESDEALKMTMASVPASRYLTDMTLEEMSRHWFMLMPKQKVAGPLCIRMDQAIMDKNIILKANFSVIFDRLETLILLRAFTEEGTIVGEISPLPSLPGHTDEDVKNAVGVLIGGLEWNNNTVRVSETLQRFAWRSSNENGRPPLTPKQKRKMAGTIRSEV

P388/ADR = test: cells; format: functional; conditions: Mus musculus
SN12K1 = test: cells; format: functional; conditions: Homo sapiens
P388 = test: cells; format: functional; conditions: Mus musculus

For `CCN1C(=O)C(=CNc2ccc(N3CCOCC3)c(Br)c2)C(=O)N(CC)C1=S`, the EC50 [1] was > 195 µM (not active), the EC50 [2] was > 53 µM (inactive) and the AC50 (HEK293) was > 350 µM (inactive).
In the case of `Cc1ccccc1-n1nc(C)c2cc(C(=O)NC3CC3)sc21`, the AC50 (HEK293) is reported as 196 µM (active).
For `N#CC1=C(N)Oc2c(ccc3cccnc23)C1c1ccncc1` (stereo not given), the AC50 [3] was 99.4 µM (active).
For `CN1N=C(C(C)(C)C)CC1=O`, the EC50 (Protein RecA) was 2.5 µM (active), the EC50 [4] was > 55.7 µM (not active) and the AC50 [5] was 9.6 µM (active). The EC50 [6] was > 55.7 µM (not active).
For `Cc1cc(O)nc(NN=Cc2cc(Br)ccc2O)n1`, the AC50 (HEK293) was 5.26 µM (active) and the IC50 (Nonstructural protein 1) was 12.2 µM (active).
With `Cc1ccc(C(=O)Nc2cccc(C(F)(F)F)c2)cc1Nc1[nH]cnc2ncnc1-2` the AC50 (HEK293) was 7.93 µM (active).
For `C[S+]([O-])c1cc(=O)c2ccccc2s1` (stereo not given), the GI50 (P388/ADR) was 2.66 µM (inactive), the GI50 (SN12K1) was 17.8 µM (inactive) and the GI50 (P388) was 1.83 µM (inactive).
With `CC(=O)OCC1OC(n2cc(F)c(=O)[nH]c2=O)C(N)C(OC(C)=O)C1OC(C)=O` (stereo not given) the GI50 (P388/ADR) was > 100 µM (inactive), the GI50 (SN12K1) was > 100 µM (inactive) and the GI50 (P388) was > 100 µM (inactive).
For `O=C1CSc2sc(=S)sc2S1`, the GI50 (P388/ADR) was 27.7 µM (inactive), the GI50 (SN12K1) was > 100 µM (inactive) and the GI50 (P388) was 31.2 µM (inactive).
In the case of `Cc1[nH]c(=O)[nH]c(=O)c1/C=C/C(=O)NC(CO)C[S+]([O-])C[S+](C)[O-]` (stereo not given), the GI50 (P388/ADR) is reported as 23.2 µM (inactive), the GI50 (SN12K1) is reported as 9.38 µM (inactive) and the GI50 (P388) is reported as 19.4 µM (inactive).
For `O=C1Nc2ccccc2Nc2ccncc21`, the GI50 (P388/ADR) was > 31.6 µM (inactive), the GI50 (SN12K1) was > 100 µM (inactive) and the GI50 (P388) was > 100 µM (inactive).
With `C/C=C1\NC(=O)[C@H]2CSSCCC=C[C@H](CC(=O)N[C@H](C(C)C)C(=O)N2)OC(=O)[C@H](C(C)C)NC1=O` the GI50 (P388/ADR) was < 0.0241 µM (active), the GI50 (SN12K1) was < 0.01 µM (active) and the GI50 (P388) was < 0.01 µM (active).
